Measurements: ChEMBL document CHEMBL3885881, “DrugMatrix”

Species: Rattus norvegicus
Experiment: DrugMatrix - Regimen: Daily Repeat
Type: toxicity, organism-based, Sprague-Dawley
Parameters: regimen Daily Repeat, gender Male, age 6-8 weeks
Conditions: in vivo, po, 10 mg/kg, route oral GAVAGE, dose level Low, […]; for ABSOLUTE BASOPHIL / ABSOLUTE EOSINOPHIL / ABSOLUTE LYMPHOCYTE / ABSOLUTE MONOCYTE / ABSOLUTE SEGMENTED NEUTROPHIL / BASOPHIL / EOSINOPHIL / HEMATOCRIT / HEMOGLOBIN / LEUKOCYTE COUNT / LYMPHOCYTE / MEAN CORPUSCULAR HEMOGLOBIN / MEAN CORPUSCULAR HEMOGLOBIN CONCENTRATION / MEAN CORPUSCULAR VOLUME / MONOCYTE / NEUTROPHIL / NUCLEATED RED BLOOD CELLS / PLATELET COUNT: tissue Blood; for ALANINE AMINOTRANSFERASE / ALBUMIN / ALKALINE PHOSPHATASE / ASPARTATE AMINOTRANSFERASE / BLOOD UREA NITROGEN / CARBON DIOXIDE / CHLORIDE / CHOLESTEROL / CREATINE PHOSPHOKINASE / CREATININE / GLUCOSE / LIPASE / PHOSPHORUS / POTASSIUM / SODIUM / TOTAL BILIRUBIN / TOTAL PROTEIN / URIC ACID: tissue Plasma

CN1CCN2c3ccccc3Cc3ccccc3C2C1 (configuration not stated) [MIANSERIN]
ABSOLUTE BASOPHIL (72 h, time 3 day): 0 CELLS/uL | ABSOLUTE EOSINOPHIL (72 h, time 3 day): 54.33 CELLS/uL | ABSOLUTE LYMPHOCYTE (72 h, time 3 day): 11772.33 CELLS/uL | ABSOLUTE MONOCYTE (72 h, time 3 day): 287.33 CELLS/uL | ABSOLUTE SEGMENTED NEUTROPHIL (72 h, time 3 day): 1319.33 CELLS/uL | BASOPHIL (72 h, time 3 day): 0% | EOSINOPHIL (72 h, time 3 day): 0.33% | HEMATOCRIT (72 h, time 3 day): 34.47% | HEMOGLOBIN (72 h, time 3 day): 13.1 G/DL | LEUKOCYTE COUNT (72 h, time 3 day): 13.43 x10E3/uL | LYMPHOCYTE (72 h, time 3 day): 88.33% | MEAN CORPUSCULAR HEMOGLOBIN (72 h, time 3 day): 23.57 pg | MEAN CORPUSCULAR HEMOGLOBIN CONCENTRATION (72 h, time 3 day): 38 G/DL | MEAN CORPUSCULAR VOLUME (72 h, time 3 day): 61.97 fL | MONOCYTE (72 h, time 3 day): 2% | NEUTROPHIL (72 h, time 3 day): 9.33% | NUCLEATED RED BLOOD CELLS (72 h, time 3 day): 0 /100WBC | PLATELET COUNT (72 h, time 3 day): 1172 x10E3/uL | ALANINE AMINOTRANSFERASE (72 h, time 3 day): 74.67 u/L | ALBUMIN (72 h, time 3 day): 4.4 G/DL | ALKALINE PHOSPHATASE (72 h, time 3 day): 433.33 u/L | ASPARTATE AMINOTRANSFERASE (72 h, time 3 day): 111 u/L | BLOOD UREA NITROGEN (72 h, time 3 day): 16.33 mg/dL | CARBON DIOXIDE (72 h, time 3 day): 20.67 mmol/L | CHLORIDE (72 h, time 3 day): 107 MEQ/L | CHOLESTEROL (72 h, time 3 day): 81 mg/dL | CREATINE PHOSPHOKINASE (72 h, time 3 day): 603 u/L | CREATININE (72 h, time 3 day): 0.28 mg/dL | GLUCOSE (72 h, time 3 day): 162.67 mg/dL | LIPASE (72 h, time 3 day): 12 u/L | PHOSPHORUS (72 h, time 3 day): 12.3 mg/dL | POTASSIUM (72 h, time 3 day): 6.52 MEQ/L | SODIUM (72 h, time 3 day): 150.33 MEQ/L | TOTAL BILIRUBIN (72 h, time 3 day): 0.27 mg/dL | TOTAL PROTEIN (72 h, time 3 day): 6.23 G/DL | URIC ACID (72 h, time 3 day): 1.93 mg/dL | ABSOLUTE BASOPHIL (120 h, time 5 day): 0 CELLS/uL | ABSOLUTE EOSINOPHIL (120 h, time 5 day): 0 CELLS/uL | ABSOLUTE LYMPHOCYTE (120 h, time 5 day): 13210.67 CELLS/uL | ABSOLUTE MONOCYTE (120 h, time 5 day): 71.33 CELLS/uL | ABSOLUTE SEGMENTED NEUTROPHIL (120 h, time 5 day): 1118 CELLS/uL | BASOPHIL (120 h, time 5 day): 0% | EOSINOPHIL (120 h, time 5 day): 0% | HEMATOCRIT (120 h, time 5 day): 37.27% | HEMOGLOBIN (120 h, time 5 day): 13.67 G/DL | LEUKOCYTE COUNT (120 h, time 5 day): 14.4 x10E3/uL | LYMPHOCYTE (120 h, time 5 day): 92% | MEAN CORPUSCULAR HEMOGLOBIN (120 h, time 5 day): 23.9 pg | MEAN CORPUSCULAR HEMOGLOBIN CONCENTRATION (120 h, time 5 day): 36.73 G/DL | MEAN CORPUSCULAR VOLUME (120 h, time 5 day): 65.03 fL | MONOCYTE (120 h, time 5 day): 0.33% | NEUTROPHIL (120 h, time 5 day): 7.67% | NUCLEATED RED BLOOD CELLS (120 h, time 5 day): 0 /100WBC | PLATELET COUNT (120 h, time 5 day): 1241.33 x10E3/uL | ALANINE AMINOTRANSFERASE (120 h, time 5 day): 77.67 u/L | ALBUMIN (120 h, time 5 day): 4.3 G/DL | ALKALINE PHOSPHATASE (120 h, time 5 day): 439.33 u/L | ASPARTATE AMINOTRANSFERASE (120 h, time 5 day): 87.33 u/L | BLOOD UREA NITROGEN (120 h, time 5 day): 16.67 mg/dL | CARBON DIOXIDE (120 h, time 5 day): 24.67 mmol/L | CHLORIDE (120 h, time 5 day): 105.33 MEQ/L | CHOLESTEROL (120 h, time 5 day): 62 mg/dL | CREATINE PHOSPHOKINASE (120 h, time 5 day): 238.33 u/L | CREATININE (120 h, time 5 day): 0.16 mg/dL | GLUCOSE (120 h, time 5 day): 176.33 mg/dL | LIPASE (120 h, time 5 day): 11 u/L | PHOSPHORUS (120 h, time 5 day): 13.77 mg/dL | POTASSIUM (120 h, time 5 day): 7.05 MEQ/L | SODIUM (120 h, time 5 day): 148.43 MEQ/L | TOTAL BILIRUBIN (120 h, time 5 day): 0.23 mg/dL | TOTAL PROTEIN (120 h, time 5 day): 6.13 G/DL | URIC ACID (120 h, time 5 day): 2.37 mg/dL
